Read-outs that look alike come from different tables or passages of the source.
Legend:
[1] = tested on: housefly (Musca domestica); test: Inhibition test on housefly larvae reared in artificial culture until pupation, pupae examined (Test Example 2); format: in vivo
Experimental: Powdered animal feed (2 g) was thoroughly mixed with bran (14 g). An emulsifiable concentrate prepared according to Formulation Example 1 was diluted with water to a designed concentration, and the dilution was added to the above mixture. The resultant mixture was stirred well to make an artificial culture. Thirty larvae of housefly (Musca domestica) were reared therein until their pupation. The obtained pupae were placed into a plastic cup, and the concentration for 50% inhibition was examined in the same manner as in Test Example 1.

[2] = tested on: common mosquito (Culex pipiens pallens); test: Inhibition of emergence of last instar larvae of common mosquito (Test Example 1); format: in vivo
Experimental: An emulsifiable concentrate prepared according to Formulation Example 1 was diluted with water to make a designed concentration. The dilution (0.7 ml) was added to 100 ml of distilled water. Last instar larvae of common mosquito (Culex pipiens pallens) were released therein and reared for 7 days until their emergence, and the concentration for 50% inhibition (IC50) was examined.

[3] = thirty larvae reared in artificial culture (powdered animal feed 2 g, bran 14 g, diluted emulsifiable concentrate) until pupation, pupae placed into plastic cup
[4] = last instar larvae, 0.7 ml dilution of emulsifiable concentrate added to 100 ml distilled water, reared for 7 days until emergence

Row | Compound | concentration for 50% inhibition (IC50) [1, 3] | concentration for 50% inhibition (IC50) [2, 4] | also measured
1 | COC(C)(C)CCCC(C)CC=CC(C)=CC(=O)OC(C)C (centres unmarked) [(A), methoprene] |  |  | concentration for 50% inhibition (IC50) [1]: 2.3 ppm; concentration for 50% inhibition (IC50) ([2]; 168 h): 0.00018 ppm
2 | c1ccc(Oc2ccc(OCCCc3ccccn3)cc2)cc1 [(B)] | > 3 ppm | 0.00013 ppm | 
3 | Cn1nccc1COc1ccc(Oc2ccccc2)cc1 [(C)] | > 3 ppm |  | 
4 | c1ccc(Oc2ccc(OCCn3cccn3)cc2)cc1 [(D)] |  | 0.00023 ppm | 
5 | Clc1cccc(Oc2ccc(OCCn3cccn3)cc2)c1 [(E)] | 1.0 ppm |  | 
6 | c1ccc(Oc2ccc(OCCCn3cccn3)cc2)cc1 [(F)] |  | 0.0007 ppm | 
7 | Clc1cc(Cl)cc(Oc2ccc(OCCCn3cccn3)cc2)c1 [(G)] | 1.8 ppm |  | 
8 | Fc1cc(F)cc(Oc2ccc(OCCCn3cccn3)cc2)c1 [Pyrazole compound (I), 1-{3-[4-(3,5-difluorophenoxy)phenoxy]propyl}pyrazole] | 0.14 ppm | 0.000009 ppm | 
